From US3984432A, “Color photographic recording material” (priority 1973, dated 1976)

What was measured:
[1] = Solubility of coupling agents in tricresyl phosphate (oil) at 20° C (Table A); type: physicochemical
[2] = Absorption maximum after colour development in a photographic silver halide layer according to Use Example I; type: physicochemical; conditions: for Abs.max., first of two maxima (subsidiary maximum) / Abs.max., second of two maxima (absorption maximum): pyrazolone coupling agents
Method in brief: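 Coupling agent dispersed in tricresyl phosphate with gelatine at pH 6.5, mixed with silver bromide emulsion and hardener, cast on glass plates and dried at 32° C. Strips exposed to 500 Lux/cm^2 under a step wedge for 2 seconds, then processed at 24° C; absorption maximum read after colour development.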

Row | Solubility in g per g of tricresyl phosphate [1] | SMILES | Abs.max., first of two maxima (subsidiary maximum) [2] | Abs.max., second of two maxima (absorption maximum) [2] | Abs.max. (single maximum) [2]
1 | 0.7 g per g of tricresyl phosphate | CCCCCCCCCCCCOc1cccc(OC(CC)C(=O)Nc2cc(Cl)c(C)c(Cl)c2O)c1 (centres unmarked) | – | – | –
2 | 0.4 g per g of tricresyl phosphate | CCCCCCCCCCCCOc1cccc(OC(CC)C(=O)Nc2cccc(C(=O)NC3=NN(c4c(Cl)cc(Cl)cc4Cl)C(=O)C3)c2)c1 (centres unmarked) | – | – | –
3 | 0.6 g per g of tricresyl phosphate | CCC(C)(C)c1ccc(OCC(=O)Nc2cccc(C(=O)NC3=NN(c4c(Cl)cc(Cl)cc4Cl)C(=O)C3)c2)c(C(C)(C)CC)c1 | – | – | –
4 | 0.7 g per g of tricresyl phosphate | CCCCCCCCCCCCCCCc1cccc(OC(CC)C(=O)Nc2cc(Cl)c(C)c(Cl)c2O)c1 (centres unmarked) | – | – | –
5 | 0.3 g per g of tricresyl phosphate | CCCCCCCCCCCCCCCc1cccc(OC(CC)C(=O)Nc2cccc(C(=O)NC3=NN(c4c(Cl)cc(Cl)cc4Cl)C(=O)C3)c2)c1 (centres unmarked) | – | – | –
6 | – | CCCCC(CC)COP(=O)(CCCOc1cccc(C(=O)Nc2cccc(NC3=NN(c4ccccc4)C(=O)C3)c2)c1)OCC(CC)CCCC (centres unmarked) [(421)] | 430 nm | 528 nm | –
7 | – | CCCCC(CC)COP(=O)(CCCOc1cccc(C(=O)Nc2cccc(NC3=NN(c4c(Cl)cc(Cl)cc4Cl)C(=O)C3)c2)c1)OCC(CC)CCCC (centres unmarked) [(422)] | 426 nm | 530 nm | –
8 | – | CCCCOP(=O)(CCCOc1cc(OCCCP(=O)(OCCCC)OCCCC)cc(C(=O)Nc2cccc(NC3=NN(c4ccccc4)C(=O)C3)c2)c1)OCCCC [(423)] | 430 nm | 530 nm | –
9 | – | CCCCOP(=O)(CCCOc1cc(OCCCP(=O)(OCCCC)OCCCC)cc(C(=O)Nc2cccc(NC3=NN(c4c(Cl)cc(Cl)cc4Cl)C(=O)C3)c2)c1)OCCCC [(424)] | 427 nm | 532 nm | –
10 | – | CCOP(=O)(CCCOc1cccc(C(=O)Nc2c(C)cc(C)c(N3N=C(Nc4ccc(Cl)cc4)CC3=O)c2C)c1)OCC [(425)] | 430 nm | 530 nm | –
11 | – | CCCCOP(=O)(CCCOc1cccc(C(=O)Nc2c(C)cc(C)c(N3N=C(Nc4ccc(Cl)cc4)CC3=O)c2C)c1)OCCCC [(426)] | 430 nm | 528 nm | –
12 | – | CCCCOP(=O)(CCCOc1cccc(C(=O)Nc2cccc(NC3=NN(c4ccc(S(=O)(=O)N(CC)CC)cc4)C(=O)C3)c2)c1)OCCCC [(427)] | 431 nm | 538 nm | –
13 | – | CCCCOP(=O)(CCCOc1cc(OCCCP(=O)(OCCCC)OCCCC)cc(C(=O)Nc2ccc(Cl)c(NC3=NN(c4c(Cl)cc(Cl)cc4Cl)C(=O)C3)c2)c1)OCCCC [(428)] | 430 nm | 537 nm | –
14 | – | CCCCOP(=O)(CCCOc1cccc(C(=O)Nc2cccc(NC3=NN(c4ccc(S(C)(=O)=O)cc4)C(=O)C3)c2)c1)OCCCC [(429)] | 430 nm | 538 nm | –
15 | – | CCCCOP(=O)(CCCOc1cc(OCCCP(=O)(OCCCC)OCCCC)cc(C(=O)Nc2cccc(NC3=NN(c4ccc(S(C)(=O)=O)cc4)C(=O)C3)c2)c1)OCCCC [(430)] | 430 nm | 540 nm | –
16 | – | CCOP(=O)(CCCOc1cccc(NC(=O)c2ccc3ccccc3c2O)c1)OCC [(601)] | – | – | 704 nm
17 | – | CCCCOP(=O)(CCCOc1cccc(NC(=O)c2ccc3ccccc3c2O)c1)OCCCC [(602)] | – | – | 706 nm
18 | – | CCCCOP(=O)(CCCOc1cc(OCCCP(=O)(OCCCC)OCCCC)cc(C(=O)Nc2cc(Cl)c(C)c(Cl)c2O)c1)OCCCC [(701)] | – | – | 662 nm
19 | 1.2 g per g of tricresyl phosphate | CCCCCCCCCCCCCCCCCCNS(=O)(=O)c1ccc(N(CCCC)CCCC)c(NC(=O)CC(=O)c2ccccc2)c1 [DT-OS 1,522,414] | – | – | –
